Results as given in article PMC11845477, “Exploring the principles behind antibiotics with limited resistance” (Nature Communications, 2025).
Where a SMILES comes first, the peptide text is derived from it. Bridges are numbered along the chain shown (N, C = ends). [ ]: non-standard residue; d: D form. The star is where a group is joined. X2 = CC[C@H](C)CCCCC(=O)*; Dab = NCC[C@H](N)C(=O)O

System: A. baumannii ATCC 17978 (SEN) and A. baumannii ATCC BAA-1605 (MDR)
Assay: Adaptive laboratory evolution (ALE), relative MIC of evolved lines
Format: cell-based, Acinetobacter baumannii
Excerpt: Using the same set of bacterial strains, we initiated adaptive laboratory evolution with the aim to maximize the level of antibiotic resistance in the populations achieved during a longer, but fixed time period.
An established protocol for adaptive laboratory evolution[46],[73] was followed to propagate populations with the highest resistance levels. Starting with an antibiotic concentration that caused approximately 50% growth inhibition, ten parallel populations for each antibiotic-ancestor strain combination were grown for 72 hours at 37 °C with continuous shaking (300 RPM). MHB broth medium was used unless stated otherwise. After each incubation, 20 µl of each culture was transferred to four new wells containing fresh medium with increasing antibiotic concentrations (0.5×, 1×, 1.5×, and 2.5× the previous concentration) in a chessboard layout to monitor potential cross-contamination. Growth was monitored by measuring OD600 using a Biotek Synergy 2 microplate reader, and only populations grown in the highest drug concentration with an OD600 > 0.2 were transferred further.
A robotic liquid handling system was used to automatically prepare a 11 to 16-step serial dilution in 384-well microtiter plates (Greiner). A final concentration of 5 × 10^5 bacterial cells per mL were inoculated into each well containing 60 µL MHB medium. Bacterial cultures were incubated at 37 °C with continuous shaking (Infors shaker, 900 rpm with 3 mm throw) for 18 hours (2 replicates from each). Cell growth was monitored by measuring the optical density (OD600 values, using Biotek Synergy microplate reader). MIC was defined as the antibiotic concentration of complete growth inhibition (i.e., OD600 < 0.05). Relative MIC was calculated as follows:1 relativeMIC=MICevolved/MICancestor […]
Supplementary Figure 4. Resistance levels following adaptive laboratory evolution across bacterial strains. The level of resistance was measured as the fold change in relative MIC between evolved and ancestral strains after ~60 days of adaptive laboratory evolution. Data are grouped by bacterial strain (A. baumannii (AB), E. coli (EC), K. pneumoniae (KP), and P. aeruginosa (PA)) and categorized as either multidrug-resistant (MDR) or sensitive (SEN). Each data point represents a laboratory evolved line, and boxplots show the median, first and third quartiles, with whiskers indicating the 5th and 95th percentiles.
Statistical analysis was performed using two-sided Dunn’s post-hoc test with Benjamini-Hochberg correction for multiple comparisons (****/ ***/ **/ * indicates p < 0.0001/ 0.001/ 0.01/ 0.05). For detailed information on antibiotic and bacterial species, see Supplementary Table 1. For mode of action groups, refer to Table 1. Source data are provided as a Source Data file.

[1] = AB-SEN (Acinetobacter baumannii ATCC 17978), evolved line 1
[2] = AB-SEN (Acinetobacter baumannii ATCC 17978), evolved line 1 adapted to the named antibiotic
[3] = AB-SEN (Acinetobacter baumannii ATCC 17978), evolved line 2
[4] = AB-SEN (Acinetobacter baumannii ATCC 17978), evolved line 3
[5] = AB-SEN (Acinetobacter baumannii ATCC 17978), evolved line 4
[6] = AB-SEN (Acinetobacter baumannii ATCC 17978), evolved line 6
[7] = AB-SEN (Acinetobacter baumannii ATCC 17978), evolved line 7 adapted to the named antibiotic
[8] = AB-SEN (Acinetobacter baumannii ATCC 17978), evolved line 8
[9] = AB-SEN (Acinetobacter baumannii ATCC 17978), evolved line 8 adapted to the named antibiotic
[10] = AB-SEN (Acinetobacter baumannii ATCC 17978), evolved line 9
[11] = AB-SEN (Acinetobacter baumannii ATCC 17978), evolved line 10
[12] = AB-SEN, Acinetobacter baumannii ATCC 17978, evolved line 7

SMILES: O=c1ccc2ncc(=O)n3c2n1C[C@H]3CN1CCC(NCc2cc3c(cn2)OCCC3)CC1 [Gepotidacin]
- Relative MIC [1]: 64
- Relative MIC (log10) [2]: 1.806
- Relative MIC [3]: 128
- Relative MIC [4]: 128
- Relative MIC [5]: 64
- Relative MIC (log10) (AB-SEN (Acinetobacter baumannii ATCC 17978), evolved line 4 adapted to the named antibiotic): 1.806
- Relative MIC [6]: 128
- Relative MIC (log10) [7]: 1.806
- Relative MIC [8]: 64
- Relative MIC (log10) [9]: 1.806
- Relative MIC [10]: 64
- Relative MIC (log10) (AB-SEN (Acinetobacter baumannii ATCC 17978), evolved line 9 adapted to the named antibiotic): 1.806
- Relative MIC [11]: 64
- Relative MIC (AB-SEN, Acinetobacter baumannii ATCC 17978, evolved line 1 versus ancestor): 64
- Relative MIC (AB-SEN, Acinetobacter baumannii ATCC 17978, evolved line 2 versus ancestor): 128
- Relative MIC (AB-SEN, Acinetobacter baumannii ATCC 17978, evolved line 3 versus ancestor): 128
- Relative MIC (AB-SEN, Acinetobacter baumannii ATCC 17978, evolved line 4 versus ancestor): 64
- Relative MIC (AB-SEN, Acinetobacter baumannii ATCC 17978, evolved line 6 versus ancestor): 128
- Relative MIC (AB-SEN, Acinetobacter baumannii ATCC 17978, evolved line 7 versus ancestor): 64
- Relative MIC (AB-SEN, Acinetobacter baumannii ATCC 17978, evolved line 8 versus ancestor): 64
- Relative MIC (AB-SEN, Acinetobacter baumannii ATCC 17978, evolved line 9 versus ancestor): 64
- Relative MIC (AB-SEN, Acinetobacter baumannii ATCC 17978, evolved line 10 versus ancestor): 64
- Relative MIC [12]: 64

SMILES: CN(C)c1cc(CNCC(C)(C)C)c(O)c2c1C[C@H]1C[C@H]3[C@H](N(C)C)C(O)=C(C(N)=O)C(=O)[C@@]3(O)C(O)=C1C2=O [Omadacycline]
- Relative MIC [1]: 32
- Relative MIC (log10) [2]: 1.505
- Relative MIC [3]: 64
- Relative MIC [4]: 64
- Relative MIC (log10) (AB-SEN (Acinetobacter baumannii ATCC 17978), evolved line 3 adapted to the named antibiotic): 1.806
- Relative MIC [5]: 32
- Relative MIC (AB-SEN (Acinetobacter baumannii ATCC 17978), evolved line 5): 128
- Relative MIC [6]: 128
- Relative MIC (log10) (AB-SEN (Acinetobacter baumannii ATCC 17978), evolved line 6 adapted to the named antibiotic): 2.107
- Relative MIC (log10) [7]: 1.806
- Relative MIC [8]: 64
- Relative MIC (log10) [9]: 1.806
- Relative MIC [10]: 32
- Relative MIC [11]: 32
- Relative MIC (AB-SEN ATCC 17978, evolved line 1, evolved line vs ancestor): 32
- Relative MIC (AB-SEN ATCC 17978, evolved line 2, evolved line vs ancestor): 64
- Relative MIC (AB-SEN ATCC 17978, evolved line 3, evolved line vs ancestor): 64
- Relative MIC (AB-SEN ATCC 17978, evolved line 4, evolved line vs ancestor): 32
- Relative MIC (AB-SEN ATCC 17978, evolved line 5, evolved line vs ancestor): 128
- Relative MIC (AB-SEN ATCC 17978, evolved line 6, evolved line vs ancestor): 128
- Relative MIC (AB-SEN ATCC 17978, evolved line 7, evolved line vs ancestor): 64
- Relative MIC (AB-SEN ATCC 17978, evolved line 8, evolved line vs ancestor): 64
- Relative MIC (AB-SEN ATCC 17978, evolved line 9, evolved line vs ancestor): 32
- Relative MIC (AB-SEN ATCC 17978, evolved line 10, evolved line vs ancestor): 32
- Relative MIC [12]: 64

SMILES: CC[C@H](C)CCCCC(=O)N[C@@H](CCN)C(=O)N[C@H](C(=O)N[C@@H](CCN)C(=O)N[C@H]1CCNC(=O)[C@H]([C@@H](C)O)NC(=O)[C@H](CCN)NC(=O)[C@H](CCN)NC(=O)[C@H](CC(C)C)NC(=O)[C@@H](Cc2ccccc2)NC(=O)[C@H](CCN)NC1=O)[C@@H](C)O [Polymyxin B] (X2-[Dab]T[Dab][Dab][Dab][dF]L[Dab][Dab]T; lactam 4-C (inferred); N-terminus assumed)
- Relative MIC (log10) (AB-MDR (Acinetobacter baumannii ATCC BAA 1605), evolved line 4): 3.0103 log10
- Relative MIC (log10) (AB-MDR (Acinetobacter baumannii ATCC BAA 1605), evolved line 5): 3.0103 log10
- Relative MIC (log10) (AB-MDR (Acinetobacter baumannii ATCC BAA 1605), evolved line 6): 3.0103 log10
- Relative MIC (log10) (AB-MDR (Acinetobacter baumannii ATCC BAA 1605), evolved line 7): 3.0103 log10
- Relative MIC (log10) (AB-MDR (Acinetobacter baumannii ATCC BAA 1605), evolved line 9): 3.0103 log10
- Relative MIC (log10) [1]: 2.709 log10
- Relative MIC (log10) [3]: 2.709 log10
- Relative MIC (log10) [5]: 2.709 log10
- Relative MIC (log10) [6]: 2.709 log10
- Relative MIC (log10) [10]: 2.408 log10
